Blank lines part the entries; values can stand above or below the molecule they belong to.
Assays:
[1] = molecular target: Recombinant human active heparanase (Homo sapiens (Human), UniProt Q9Y251); test: Heparanase inhibition assay (colorimetric, fondaparinux substrate, WST-1 detection); assay type: biochemical; settings: for IC50: average ± SEM, direct comparison to OGT_2115, read-out: Average IC50 (μM ± SEM), heparanase enzyme inhibition
Method: Recombinant human active heparanase derived from Chinese hamster ovary cells was from R&D Systems. […] Following initiation of the reaction by addition of fondaparinux, the plate was sealed with adhesive film and incubated at 37° C. for 20-24 h. […] For the enzymatic assays, test compounds were dissolved and added to the assay at varying concentrations to calculate the level of inhibition.
Heparanase inhibition activity of various compounds of the invention was determined using standard methods.

C57BL6J mice = test: Photo-oxidative damage of the retina, retinal function by electroretinography (ERG); settings: intravitreal injection 1 μL of 200 μM, 5 days photo-oxidative damage
Excerpt: Significant trends in data points were ascertained using the one-way or two-way analysis of variance (ANOVA) to determine statistical significance (p<0.05) that is indicated by asterisks (*).
C57BL6J mice were born and raised in 12:12 hrs light:dark cycle of 5 lux in individually vented cages, with free access to food and water. Age-matched adult mice (8-10 weeks) were randomly assigned to light damage and dim-reared control (non-light damage) groups. Animals of the light damage group were continuously exposed to 100 k lux white LED light for 1, 3, 5 and 7 days. […] Dim-reared control animals were also pupil dilated twice each day, but were returned to dim cyclic light (12:12 hrs light:dark, 5 lux light).
During bright-light exposure, animals were housed in plastic boxes (two per box), with free access to food and water. The floors of the cages were coated with a reflective Perspex surface and illuminated by a 100-W 65000 k natural white LED (high CRI LED, Yuji, Beijing) mounted 18 cm above the plastic boxes. The LED light has an emission spectrum which more closely resembles daylight than halogen or incandescent bulbs. […] Animals were provided with bedding, food and water during the time course of light exposure, and their behaviour was monitored daily. […]

db/db mice [2] = test: Intra-islet heparan sulfate content in db/db mice (Alcian blue staining, morphometric analysis); assay type: in vivo, mouse; settings: 50 mg/kg daily IP
Method: (§1) FIG. 6. Intra-islet HS content in pancreas sections in treated db/db mice. Mice were treated daily with 50 mg/kg PI-88 IP from 4 weeks of age. Onset of clinical diabetes was determined by measuring urine glucose twice weekly with Multistix reagent strips and confirmed by measuring non-fasting blood glucose levels in tail vein blood using a MediSense glucometer with hyperglycemia defined as 2 consecutive blood glucose readings of 16 mmol/l or greater. Islet HS was detected by Alcian blue staining.
db/db mice were treated with saline or 50 mg/kg of PI-88 daily by intraperitoneal injection. At the cessation of treatment pancreatic islets were isolated and stained with alcian blue to visualise heparan sulfate and the heparan sulfate content of the islets was assessed by quantitative morphometric analyses.

[3] = cited from earlier work
db/db mice [4] = test: Insulin content of pancreatic islets in db/db mice (anti-insulin staining, morphometric analysis); assay type: in vivo, mouse; settings: 50 mg/kg daily IP
Method: as §1, with “5. Insulin” for “6. Intra-islet HS”, “in” for “in treated”, “mice a model of Type 2 diabetes.” for “mice.”, “Insulin” for “Islet HS”, “anti-insulin antibody” for “Alcian blue”
The db/db mouse has defective leptin signalling resulting from a point mutation in the leptin receptor gene. Plasma insulin levels become elevated very early in life (10-14 days of age), and the affected animals are obese by the time they are 3-4 weeks old. The animals are insulin resistant, hypertriglyceridemic, and have impaired glucose tolerance.
db/db mice were treated with saline or 50 mg/kg of PI-88 by daily intraperitoneal injection. At the cessation of treatment pancreatic islets were isolated and stained for insulin and the level of insulin expression assessed by quantitative morphometric analyses.

Chain of Recombinant human active heparanase (Q9Y251 158-543): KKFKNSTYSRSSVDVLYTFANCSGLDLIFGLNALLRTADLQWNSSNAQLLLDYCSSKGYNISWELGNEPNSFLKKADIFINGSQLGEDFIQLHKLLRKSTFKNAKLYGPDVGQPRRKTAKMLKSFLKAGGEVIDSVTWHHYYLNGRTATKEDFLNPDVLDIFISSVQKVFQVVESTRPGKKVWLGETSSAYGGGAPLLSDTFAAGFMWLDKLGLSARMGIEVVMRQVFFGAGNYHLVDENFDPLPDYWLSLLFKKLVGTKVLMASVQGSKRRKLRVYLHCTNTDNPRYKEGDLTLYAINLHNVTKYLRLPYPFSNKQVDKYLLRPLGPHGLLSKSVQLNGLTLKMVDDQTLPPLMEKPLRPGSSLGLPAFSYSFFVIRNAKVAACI
Chain of Recombinant human active heparanase (Q9Y251 36-109): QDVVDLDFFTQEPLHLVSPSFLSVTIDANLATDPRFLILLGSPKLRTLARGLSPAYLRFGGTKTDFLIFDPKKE

Molecule: COc1cc2nc(-c3cccc4cccnc34)nc(NCCc3ccccc3)c2cc1OC [BT2164]
- IC50 [1]: 3.13 ± 0.72 µM

- IC50 [1]: 4 ± 0.09 µM
Molecule: COc1cc2nc(NCCNC(=O)c3nnc(-c4cc5ccccc5[nH]4)o3)nc(N)c2cc1OC [BT2169]

Molecule: COc1cc2nc(NCCNC(=O)c3nnc(-c4ccccc4)o3)nc(N)c2cc1OC.Cl [BT2172]
- ERG a-wave and b-wave responses versus control (PBS) (C57BL6J mice): higher a- and b-wave responses than the control (PBS) group
- retinal function (ERG) (C57BL6J mice): maintained retinal function

- IC50 [1]: 3.64 ± 0.62 µM
Molecule: COc1cc2nc(-c3cccc4cccnc34)nc(NCCNC(=O)c3nnc(-c4ccccc4)o3)c2cc1OC [BT2187]

- heparanase inhibition (in words) [1]: inhibits heparanase
Molecule: COc1cc2nc(N3CCN(C(=O)C4COc5ccccc5O4)CC3)nc(N)c2cc1OC (stereo not drawn) [doxazosin, reference compound]

Molecule: PI-88
- islet heparan sulfate levels (db/db mice [2]): increased compared to the saline treated db/db mice and are near to the levels of heparan sulfate in the islets of wild-type mice
- half-life [3]: approximately 30 minutes
- expression of insulin in islets (db/db mice [4]): increased compared to the saline treated db/db mice and is near to the level of insulin expression in the wild-type mice
